Reference: ChEMBL document CHEMBL5620368, “Molecular-level strategic goals and repressors in Leishmaniasis - Integrated data to accelerate target-based heterocyclic scaffolds” (Eur J Med Chem, 2023)
Converted amounts (≈) assume the structure as drawn.

Assays:
[1] = tested on: Leishmania donovani; assay: Antileishmanial activity against Leishmania donovani promastigotes assessed as reduction in parasite growth incubated for 48 hrs by MTT assay; type: functional, organism-based
[2] = Cytotoxicity against mouse Peritoneal macrophages assessed as reduction in cell viability incubated for 24 hrs by MTT assay; type: toxicity, cell-based, Peritoneal macrophage
[3] = tested on: Leishmania tropica; assay: Antileishmanial activity against Leishmania tropica promastigote assessed as inhibition of parasite growth incubated for 72 hrs by MTT assay; type: functional, organism-based
[4] = Inhibition of recombinant Leishmania mexicana Trypanothione reductase
[5] = tested on: Leishmania amazonensis; assay: Antileishmanial activity against Leishmania amazonensis intracellular amastigotes assessed as parasite growth inhibition at 109 uM incubated for 96 hrs relative to control; type: functional; design: scale not given: the % may be the effect or the level left
[6] = tested on: Leishmania amazonensis; assay: Antileishmanial activity against Leishmania amazonensis promastigotes assessed as parasite growth inhibition incubated for 24 hrs; type: functional, organism-based
[7] = tested on: Leishmania amazonensis; assay: Antileishmanial activity against axenic amastigote form of patient derived Leishmania amazonensis MHOM/BR/77/LTB001 assessed as parasite growth inhibition incubated for 24 hrs; type: functional, organism-based; details: MHOM/BR/77/LTB001, 24 h
[8] = tested on: Leishmania infantum; assay: Antileishmanial activity against Leishmania infantum promastigotes assessed as reduction in cell viability incubated for 24 hrs by propidium iodide staining based flow cytometry assay; type: functional, organism-based
[9] = tested on: Leishmania infantum; assay: Antiprotozoal activity against Leishmania infantum intracellular amastigotes infected in human THP-1 derived macrophage cells assessed as reduction in parasite viability measured for 72 hrs by resazurin/alamar blue fluorometric assay; type: functional, organism-based; details: THP-1, 72 h
[10] = tested on: Leishmania braziliensis; assay: Antileishmanial activity against Leishmania braziliensis MHOM/Br/75/M2903 promastigotes assessed as reduction in parasite growth incubated for 72 hrs by MTT assay; type: functional, organism-based; details: MHOM/Br/75/M2903, 72 h
[11] = tested on: Leishmania braziliensis; assay: Antileishmanial activity against Leishmania braziliensis MHOM/Br/75/M2903 amastigotes assessed as reduction in parasite growth incubated for 72 hrs by MTT assay; type: functional, organism-based; details: MHOM/Br/75/M2903, 72 h

In the case of `CC[C@H](CC[C@@H](C)[C@H]1CC[C@H]2[C@@H]3CC=C4C[C@@H](O)CC[C@]4(C)[C@H]3CC[C@]12C)C(C)C` [BETA-SITOSTEROL], the IC50 [1] is reported as 17.7 µg/mL (≈ 42.7 µM).
For `CC/C=C\C/C=C\CCC/C=C/C=C/C=C\CCCC(=O)O`, the IC50 at 24 h [2] was 2 µM.
In the case of `C[C@@H]1O[C@@H](OC[C@H]2O[C@@H](Oc3c(-c4ccc(O)c(O)c4)oc4cc(O)cc(O)c4c3=O)[C@H](O)[C@@H](O)[C@@H]2O)[C@H](O)[C@H](O)[C@H]1O` [RUTIN], the IC50 [3] is reported as 91.2 µg/mL (≈ 149 µM).
`O=C(NCc1ccc2ncccc2c1)c1cnn(-c2ncc3c(n2)-c2ccccc2CCC3)c1C1CC1` gave an IC50 [4] of 58 µM.
For `C=C(C)[C@@H]1CC[C@@]2(C)[C@H]1[C@H]1CC[C@@H]3[C@@]4(C)CC[C@H](O)C(C)(C)[C@@H]4[C@H](O)C[C@@]3(C)[C@]1(C)C[C@@H]2O`, the Activity [5] was 80%.
With `CC1=CC(=O)C[C@H]2[C@H]1CC[C@@H](C)C21C[C@H](c2ccoc2)OC1=O` (stereo partly specified) the IC50 [6] was 6.3 µg/mL (≈ 20 µM) and the IC50 [7] was 20 µg/mL (≈ 63.6 µM).
In the case of `CC[C@@]1(O)C(=O)OCc2c1cc1n(c2=O)Cc2c-1nc1ccccc1c2/C=N/OC(C)(C)C` [GIMATECAN], the IC50 [8] is reported as 1.73 µM and the IC50 [9] is reported as 0.1 µM.
With `Oc1ccc(/C=N\Nc2ccccc2)c(O)c1` the IC50 [10] was 7.3 µM and the IC50 [11] was 21.7 µM.
